Laboratory results reported in patent publication US10077446B2, “Glucan-encapsulated siRNA for treating type 2 diabetes mellitus” (The United States of America, as represented by THE …, priority 2013, dated 2018).

Columns and labels:
MIN6 insulinoma cells = assay: Cytokine, apoptotic gene, insulin and CB1R expression in MIN6 insulinoma cells; assay type: cell-based, mouse
Description: (§1) Mouse RAW264.7 macrophages (ATCC, Manassas, Va.) were cultured as previously described (Liu, et al. 2003 J Biol Chem 278:45034-45039) and were either treated during 4 hours with various concentrations of AEA (0.1, 0.5, 1, and 10 μM) and/or JD5037 (100 nM) or treated with 30 ng/mL of IL-1β (Abcam Ab9723). Mouse MIN6 insulinoma cells were a gift from NIDDK and were cultured in low glucose DMEM (Gibco 11885) supplemented with 15% FBS (BenchMark 100-006) and 1% antibiotic antimycotic cocktail (Invitrogen 15240-096). Cells were either treated during 4 hours with various concentrations of AEA (0.5, 1 and 5 μM) or treated with 30 ng/mL of IL-1β (Abcam Ab9723).
(§2) For both cell types, medium was collected and immediately frozen in liquid nitrogen. Cells were washed twice in ice-cold sterile PBS before harvesting. EC (endocannabinoid) levels were determined as previously 3, secretion of IL-1β, IL-18, TNF-α and MCP-1 in the medium were determined using ELISA kits (Biosensis BEK-2151-2P, Uscn Life Science & Technology Company E90064Mu, Biosensis BEK-2102-2P, Uscn Life Science & Technology Company E90087Mu, respectively).
MIN6 cells were treated either with vehicle, IL-1β (30 ng/mL), IL1R antagonist (10 ng/mL) for 3 hours or pre-treated 1 h with IL1R antagonist (10 ng/mL) followed by 3 h incubation with IL-1β (30 ng/mL). […] Blot quantification was performed using the gel analysis options of image J software.
(§3) Total mRNA from the liver, pancreas and kidney were extracted with Trizol (Invitrogen), while total mRNA from cells was extracted using RNEASY™ Mini Kit (Qiagen). All extractions were followed by DNase I treatment (Invitrogen). Total mRNA was reverse-transcribed using the ISCRIPT™ cDNA kit (Bio-Rad). Real-time PCR was performed as described previously (Jourdan, et al. 2010 Diabetes 59:926-934) in a 96-well plate using a STEPONEPLUS™ real time PCR system (Applied Biosystems). QUANTITECT™ Primer Assays were used to detect gene expression (Table 3, which lists the primers used for rat and mice (tissue)). Expression of the gene of interest is reported as a relative value comparing it to the geometric average of 18S, L19, L38 and TATA box binding protein expression.

RAW264.7 macrophages = assay: Proinflammatory signaling in cultured RAW264.7 macrophages; assay type: cell-based, mouse; conditions: 4 h
Description: as §1, §2, §3

| Compound | IL-1β-induced reduction of CB1R mRNA and protein (MIN6 insulinoma cells; IL-1R antagonist 10 ng/mL) | maximally effective concentration for reducing insulin gene expression (MIN6 insulinoma cells) | pro- and anti-apoptotic gene expression (MIN6 insulinoma cells; 0.5 μM anandamide) | levels of IL-1β, TNF-α, and MCP-1 in the medium (MIN6 insulinoma cells; 4 h) | concentration at which peak changes in cytokine secretion were observed (RAW264.7 macrophages; RAW264.7 cells) [µM] | secretion of IL-1β, TNF-α, and MCP-1 (RAW264.7 macrophages; RAW264.7 cells) | CB2R expression (RAW264.7 macrophages; RAW264.7 macrophages) | expression of Nlrp3 and caspase-1 (RAW264.7 macrophages; RAW264.7 macrophages) | CB1R mRNA and protein (MIN6 insulinoma cells; 30 ng/mL IL-1β) | anti-apoptotic genes Bcl-2 and Bcl-xl (MIN6 insulinoma cells; 30 ng/mL IL-1β) | pro-apoptotic genes Bak and Bax (MIN6 insulinoma cells; 30 ng/mL IL-1β) |
| --- | --- | --- | --- | --- | --- | --- | --- | --- | --- | --- | --- |
| IL-1R antagonist: IL-1 receptor antagonist used at 10 ng/mL in MIN6 cells | blocked | – | – | – | – | – | – | – | – | – | – |
| CCCCC/C=C\C/C=C\C/C=C\C/C=C\CCCC(=O)NCCO [anandamide] | – | 0.5 µM | little or no effect | did not affect | 0.5 | markedly increased | without affecting | robustly increased | – | – | – |
| IL-1β: interleukin-1β (Abcam Ab9723) | – | 30 ng/mL | – | – | – | – | – | – | drastically reduced | drastically suppressed | markedly induced |
